# Data: US9770026B2, “Substituted pyrimidine compound and uses thereof” (Shenyang Sinochem Agrochemicals R&D Co., Ltd., priority 2012, dated 2017)
# Experiments:
# armyworm = experiment: bioactivity test against armyworm, airbrush spray; assay type: in vivo; details: for control (test results against armyworm): 600 ppm, mortality after 72 h
# Procedure: (§1) Compounds were dissolved in mixed solvent (acetone:methanol=1:1), and diluted to required concentration with water containing 0.1% of tween 80.
# (§2) Diamond back moth, armyworm, peach aphid and carmine spider mite were used as targets and the method of spraying by airbrush was used for determination of insecticidal biassays.
# (§3) The method of spraying by airbrush: The corn leaves were made into plates of 2 cm diameter by use of punch. A test solution (0.5 ml) was sprayed by airbrush at the pressure of 0.7 kg/cm^2 to both sides of every plate. 10 Second instar larvae were put into the petri-dishes after the leaf disc air-dried and 3 replicates were set for each treatment. Then the insects were maintained in observation room (25 °C, 60˜70% R.H.). Scores were conducted and mortalities were calculated after 72 h.
# cucumber downy mildew = experiment: protectant activity in vivo against cucumber downy mildew; details: for pest or weed control at 400 µg/mL: read-out: control effect against cucumber downy mildew (%), 400 mg/L
# Diamond back moth = experiment: insecticidal activity against diamond back moth, airbrush spray; assay type: in vivo; details: for control (test results against diamond back moth): 600 ppm, mortality after 72 hrs
# Procedure: as §1, §2
# as §3, with “The cabbage” for “The corn”, “room (25° C.,” for “room (25 °C,”, “72 hrs.” for “72 h.”
# [1] = tested on: Green peach aphids (Myzus Persicae Sulzer); experiment: bioactivity test against green peach aphid, airbrush foliar spray; assay type: in vivo; details: for control (test results against green peach aphid): death rate after 48 hrs
# Procedure, shortened: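 Death rate was scored at 48 hrs, held at 25±1 C and 60±5% RH, following airbrush foliar spray (0.5 mL, 10 psi) onto cabbage leaf discs bearing about 15-30 aphids. Test solutions: compound dissolved in 1:1 acetone:methanol, brought to concentration with 0.1% tween 80 water.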
# wheat powdery mildew = experiment: protectant activity in vivo against wheat powdery mildew; details: for pest or weed control at 400 µg/mL: read-out: control effect against wheat powdery mildew (%), 400 mg/L
# corn rust = experiment: protectant activity in vivo against corn rust; details: for pest or weed control at 400 µg/mL: read-out: control effect against corn rust (%), 400 mg/L
# carmine spider mite = experiment: bioactivity test against carmine spider mite, airbrush spray; assay type: in vivo; details: for control against carmine spider mite: mortality after 72 hrs
# Procedure: as §1, §2
# The method: Broadbean shoots with two true leaves in pot were taken, the healthy adults of carmine spider mite were inoculated to the leaves. The adults were counted and then sprayed with airbrush at the pressure of 0.7 kg/cm^2 and at dose of 0.5 ml. 3 replicates were set for each treatment. And then they were maintained in standard observation room. Scores were conducted and mortalities were calculated after 72 hrs.
# [2] = Cucumis sativus, 168 h, protectant activity
# [3] = Triticum aestivum, 168 h, protectant activity
# [4] = Zea mays, 168 h, protectant activity
smiles,measurement,setting,value
"CCc1ncnc(NC(C)c2ccc(Oc3ccc(C(C)(C)C)cc3)nc2)c1Cl (centres unmarked) [CK10, reference compound]",Insecticidal activity against armyworm (%),armyworm; 600 mg/L,0%
same,control effect against cucumber downy mildew (%),"cucumber downy mildew; 25 mg/L, protectant activity",20%
same,control effect against cucumber downy mildew (%),"cucumber downy mildew; 50 mg/L, protectant activity",40%
same,control effect against cucumber downy mildew (%),"cucumber downy mildew; 100 mg/L, protectant activity",82%
same,control effect against cucumber downy mildew (%),"cucumber downy mildew; 400 mg/L, protectant activity",100%
same,Insecticidal activity against diamond back moth (%),Diamond back moth; 600 mg/L,33%
same,Insecticidal activity against peach aphid (%),"[1]; 10 mg/L, contrastive test",23%
same,Insecticidal activity against peach aphid (%),"[1]; 100 mg/L, contrastive test",91%
same,Insecticidal activity against peach aphid (%),"[1]; 600 mg/L, contrastive test",100%
same,control effect against wheat powdery mildew (%),"wheat powdery mildew; 400 mg/L, protectant activity",50%
same,control effect against corn rust (%),"corn rust; 400 mg/L, protectant activity",50%
Cc1nc(Cl)c(Cl)c(NCCc2ccc(Oc3ccc(Cl)cc3)nc2)n1 [III-2527],control (test results against armyworm),armyworm,100%
same,control effect against cucumber downy mildew (%),"cucumber downy mildew; 6.25 mg/L, protectant activity",75%
same,control effect against cucumber downy mildew (%),"cucumber downy mildew; 12.5 mg/L, protectant activity",100%
same,control effect against cucumber downy mildew (%),"cucumber downy mildew; 25 mg/L, protectant activity",100%
same,control effect against cucumber downy mildew (%),"cucumber downy mildew; 50 mg/L, protectant activity",100%
same,control effect against cucumber downy mildew (%),"cucumber downy mildew; 100 mg/L, protectant activity",100%
same,control effect against cucumber downy mildew (%),"cucumber downy mildew; 400 mg/L, protectant activity",100%
same,protectant activity against cucumber downy mildew in vivo,cucumber downy mildew; 12.5 ppm,100%
same,protectant activity against cucumber downy mildew in vivo,cucumber downy mildew; 25 ppm,100%
same,protectant activity against cucumber downy mildew in vivo,cucumber downy mildew; 50 ppm,100%
same,protectant activity against cucumber downy mildew in vivo,cucumber downy mildew; 100 ppm,100%
same,protectant activity against cucumber downy mildew in vivo,cucumber downy mildew; 400 ppm,100%
same,control (test results against diamond back moth),Diamond back moth,100%
same,control (test results against green peach aphid),[1]; 600 ppm,100%
Cc1ncnc(NCCc2ccc(Oc3ccc(C(F)(F)F)cc3Cl)cc2)c1Cl [II-154],protectant activity against cucumber downy mildew in vivo,cucumber downy mildew; 400 ppm,100%
same,control (test results against diamond back moth),Diamond back moth,100%
same,control (test results against green peach aphid),[1]; 100 ppm,100%
same,control (test results against green peach aphid),[1]; 600 ppm,100%
same,control against carmine spider mite,carmine spider mite; 100 ppm,100%
same,control against carmine spider mite,carmine spider mite; 600 ppm,100%
same,protectant activity against wheat powdery mildew in vivo,wheat powdery mildew; 100 ppm,100%
same,protectant activity against wheat powdery mildew in vivo,wheat powdery mildew; 400 ppm,100%
same,control effect against corn rust (%),"corn rust; 1.6 mg/L, protectant activity",50%
same,control effect against corn rust (%),"corn rust; 6.25 mg/L, protectant activity",100%
same,control effect against corn rust (%),"corn rust; 25 mg/L, protectant activity",100%
same,control effect against corn rust (%),"corn rust; 100 mg/L, protectant activity",100%
same,control effect against corn rust (%),"corn rust; 400 mg/L, protectant activity",100%
same,protectant activity against corn rust in vivo,corn rust; 6.25 ppm,100%
same,protectant activity against corn rust in vivo,corn rust; 25 ppm,100%
same,protectant activity against corn rust in vivo,corn rust; 100 ppm,100%
same,protectant activity against corn rust in vivo,corn rust; 400 ppm,100%
Cc1cc(Cl)ccc1Oc1ccc(CCNc2ncnc(C)c2Cl)cn1 [III-110],control effect against cucumber downy mildew (%),"cucumber downy mildew; 25 mg/L, protectant activity",100%
same,control effect against cucumber downy mildew (%),"cucumber downy mildew; 50 mg/L, protectant activity",100%
same,control effect against cucumber downy mildew (%),"cucumber downy mildew; 100 mg/L, protectant activity",100%
same,control effect against cucumber downy mildew (%),"cucumber downy mildew; 400 mg/L, protectant activity",100%
same,protectant activity against cucumber downy mildew in vivo,cucumber downy mildew; 25 ppm,100%
same,protectant activity against cucumber downy mildew in vivo,cucumber downy mildew; 50 ppm,100%
same,protectant activity against cucumber downy mildew in vivo,cucumber downy mildew; 100 ppm,100%
same,protectant activity against cucumber downy mildew in vivo,cucumber downy mildew; 400 ppm,100%
same,control (test results against diamond back moth),Diamond back moth,100%
same,control (test results against green peach aphid),[1]; 100 ppm,100%
same,control (test results against green peach aphid),[1]; 600 ppm,100%
same,control against carmine spider mite,carmine spider mite; 600 ppm,100%
same,protectant activity against wheat powdery mildew in vivo,wheat powdery mildew; 400 ppm,100%
same,protectant activity against corn rust in vivo,corn rust; 100 ppm,100%
same,protectant activity against corn rust in vivo,corn rust; 400 ppm,100%
COc1cc(CCNc2ncnc(C)c2Cl)ccc1Oc1ccc(Cl)cc1 [II-1687],protectant activity against cucumber downy mildew in vivo,cucumber downy mildew; 50 ppm,100%
same,protectant activity against cucumber downy mildew in vivo,cucumber downy mildew; 100 ppm,100%
same,protectant activity against cucumber downy mildew in vivo,cucumber downy mildew; 400 ppm,100%
same,control (test results against diamond back moth),Diamond back moth,100%
same,Insecticidal activity against peach aphid (%),"[1]; 10 mg/L, contrastive test",100%
same,Insecticidal activity against peach aphid (%),"[1]; 100 mg/L, contrastive test",100%
same,Insecticidal activity against peach aphid (%),"[1]; 600 mg/L, contrastive test",100%
same,control (test results against green peach aphid),[1]; 10 ppm,100%
same,control (test results against green peach aphid),[1]; 100 ppm,100%
same,control (test results against green peach aphid),[1]; 600 ppm,100%
same,control against carmine spider mite,carmine spider mite; 600 ppm,100%
same,protectant activity against wheat powdery mildew in vivo,wheat powdery mildew; 25 ppm,100%
same,protectant activity against wheat powdery mildew in vivo,wheat powdery mildew; 100 ppm,100%
same,protectant activity against wheat powdery mildew in vivo,wheat powdery mildew; 400 ppm,100%
same,protectant activity against corn rust in vivo,corn rust; 100 ppm,100%
same,protectant activity against corn rust in vivo,corn rust; 400 ppm,100%
CCc1ncnc(NCCc2ccc(Oc3ccccc3Cl)nc2)c1Cl [III-185],control (test results against diamond back moth),Diamond back moth,100%
same,control (test results against green peach aphid),[1]; 100 ppm,100%
same,control (test results against green peach aphid),[1]; 600 ppm,100%
same,control against carmine spider mite,carmine spider mite; 600 ppm,100%
same,protectant activity against wheat powdery mildew in vivo,wheat powdery mildew; 400 ppm,100%
same,protectant activity against corn rust in vivo,corn rust; 400 ppm,100%
CCc1ncnc(NCCc2ccc(Oc3ccc(S(N)(=O)=O)cc3)cc2)c1Cl [II-556],control (test results against diamond back moth),Diamond back moth,100%
"COc1cc(NCCc2ccc(Oc3ncc(C(F)(F)F)cc3Cl)cc2)ncn1 [CK71, reference compound]",pest or weed control at 600 µg/mL,"armyworm; 72 h, 600 mg/L, read-out: Insecticidal activity against armyworm (%)",86%
same,pest or weed control at 400 µg/mL,cucumber downy mildew; [2],80%
same,pest or weed control at 600 µg/mL,"Diamond back moth; 72 h, 600 mg/L",0%
same,pest or weed control at 400 µg/mL,wheat powdery mildew; [3],100%
same,pest or weed control at 400 µg/mL,corn rust; [4],0%
"FC(F)(F)c1ccc(Oc2ccc(CCNc3cc(Cl)ncn3)cc2)nc1 [CK69, reference compound]",pest or weed control at 25 µg/mL,"cucumber downy mildew; Cucumis sativus, 168 h, read-out: control effect against cucumber downy mildew (%), 25 mg/L, protectant activity",50%
same,pest or weed control at 50 µg/mL,"cucumber downy mildew; Cucumis sativus, 168 h, read-out: control effect against cucumber downy mildew (%), 50 mg/L, protectant activity",98%
same,pest or weed control at 100 µg/mL,"cucumber downy mildew; Cucumis sativus, 168 h, read-out: control effect against cucumber downy mildew (%), 100 mg/L, protectant activity",100%
same,pest or weed control at 400 µg/mL,cucumber downy mildew; [2],100%
same,pest or weed control at 10 µg/mL,"Diamond back moth; 72 h, 10 mg/L",0%
same,pest or weed control at 100 µg/mL,"Diamond back moth; 72 h, 100 mg/L",5%
same,pest or weed control at 600 µg/mL,"Diamond back moth; 72 h, 600 mg/L",100%
same,pest or weed control at 10 µg/mL,"[1]; Myzus persicae, foliar, 48 h, 10 mg/L, contrastive test, read-out: Insecticidal activity against peach aphid (%)",70%
same,pest or weed control at 100 µg/mL,"[1]; Myzus persicae, foliar, 48 h, 100 mg/L, contrastive test, read-out: Insecticidal activity against peach aphid (%)",100%
same,pest or weed control at 600 µg/mL,"[1]; Myzus persicae, foliar, 48 h, 600 mg/L, contrastive test, read-out: Insecticidal activity against peach aphid (%)",100%
same,pest or weed control at 10 µg/mL,"carmine spider mite; Tetranychus cinnabarinus, 72 h, 10 mg/L, contrastive test, read-out: Insecticidal activity against carmine spider mite (% )",4%
same,pest or weed control at 100 µg/mL,"carmine spider mite; Tetranychus cinnabarinus, 72 h, 100 mg/L, contrastive test, read-out: Insecticidal activity against carmine spider mite (% )",100%
same,pest or weed control at 600 µg/mL,"carmine spider mite; Tetranychus cinnabarinus, 72 h, 600 mg/L, contrastive test, read-out: Insecticidal activity against carmine spider mite (% )",100%
same,pest or weed control at 6.25 µg/mL,"wheat powdery mildew; Triticum aestivum, 168 h, read-out: control effect against wheat powdery mildew (%), 6.25 mg/L, protectant activity",0%
same,pest or weed control at 25 µg/mL,"wheat powdery mildew; Triticum aestivum, 168 h, read-out: control effect against wheat powdery mildew (%), 25 mg/L, protectant activity",0%
same,pest or weed control at 100 µg/mL,"wheat powdery mildew; Triticum aestivum, 168 h, read-out: control effect against wheat powdery mildew (%), 100 mg/L, protectant activity",0%
same,pest or weed control at 400 µg/mL,wheat powdery mildew; [3],100%
same,pest or weed control at 6.25 µg/mL,"corn rust; Zea mays, 168 h, read-out: control effect against corn rust (%), 6.25 mg/L, protectant activity",0%
same,pest or weed control at 25 µg/mL,"corn rust; Zea mays, 168 h, read-out: control effect against corn rust (%), 25 mg/L, protectant activity",50%
same,pest or weed control at 100 µg/mL,"corn rust; Zea mays, 168 h, read-out: control effect against corn rust (%), 100 mg/L, protectant activity",90%
same,pest or weed control at 400 µg/mL,corn rust; [4],100%
Cc1ncnc(NCCc2ccc(Oc3cccc(Cl)c3)nc2)c1Cl [III-6],control (test results against armyworm),armyworm,100%
same,control (test results against diamond back moth),Diamond back moth,100%
same,control (test results against green peach aphid),[1]; 600 ppm,100%
same,protectant activity against wheat powdery mildew in vivo,wheat powdery mildew; 400 ppm,100%
same,protectant activity against corn rust in vivo,corn rust; 100 ppm,100%
same,protectant activity against corn rust in vivo,corn rust; 400 ppm,100%
Cc1ncnc(NCCc2ccc(Oc3ccc(Cl)nn3)cc2)c1Br [Compound I-4121],control (test results against armyworm),armyworm,100%
same,control (test results against diamond back moth),Diamond back moth,100%
same,control (test results against green peach aphid),[1]; 10 ppm,100%
same,control (test results against green peach aphid),[1]; 100 ppm,100%
same,control (test results against green peach aphid),[1]; 600 ppm,100%
same,protectant activity against wheat powdery mildew in vivo,wheat powdery mildew; 400 ppm,100%
same,protectant activity against corn rust in vivo,corn rust; 400 ppm,100%
